{
  "source": "paper PMC3489664",
  "about": "“Sigma-1 Receptor Agonists Directly Inhibit NaV1.2/1.4 Channels” (PLoS ONE, 2012)",
  "type_in_all_cases": "cell-based",
  "key": {"NaV1.2 [1]": {"target": "T1, NaV1.2 (Rattus norvegicus, UniProt P04775)", "T1 construct": "gene Scn2a; rat brain type IIA Na+ channel clone", "assay": "whole-cell patch clamp in transfected HEK293T and COS-7 cells, […]"}, "NaV1.2 [2]": {"target": "T1, NaV1.2", "assay": "whole-cell patch clamp in transfected HEK293T cells, […]", "conditions": "HEK-293T"}, "NaV1.4 [3]": {"target": "T2, NaV1.4 (Rattus norvegicus, UniProt P15390, Y1586A)", "T2 construct": "gene Scn4a; rat NaV1.4 (NM013178)", "T2 sequence (P15390 whole entry Y1586A)": "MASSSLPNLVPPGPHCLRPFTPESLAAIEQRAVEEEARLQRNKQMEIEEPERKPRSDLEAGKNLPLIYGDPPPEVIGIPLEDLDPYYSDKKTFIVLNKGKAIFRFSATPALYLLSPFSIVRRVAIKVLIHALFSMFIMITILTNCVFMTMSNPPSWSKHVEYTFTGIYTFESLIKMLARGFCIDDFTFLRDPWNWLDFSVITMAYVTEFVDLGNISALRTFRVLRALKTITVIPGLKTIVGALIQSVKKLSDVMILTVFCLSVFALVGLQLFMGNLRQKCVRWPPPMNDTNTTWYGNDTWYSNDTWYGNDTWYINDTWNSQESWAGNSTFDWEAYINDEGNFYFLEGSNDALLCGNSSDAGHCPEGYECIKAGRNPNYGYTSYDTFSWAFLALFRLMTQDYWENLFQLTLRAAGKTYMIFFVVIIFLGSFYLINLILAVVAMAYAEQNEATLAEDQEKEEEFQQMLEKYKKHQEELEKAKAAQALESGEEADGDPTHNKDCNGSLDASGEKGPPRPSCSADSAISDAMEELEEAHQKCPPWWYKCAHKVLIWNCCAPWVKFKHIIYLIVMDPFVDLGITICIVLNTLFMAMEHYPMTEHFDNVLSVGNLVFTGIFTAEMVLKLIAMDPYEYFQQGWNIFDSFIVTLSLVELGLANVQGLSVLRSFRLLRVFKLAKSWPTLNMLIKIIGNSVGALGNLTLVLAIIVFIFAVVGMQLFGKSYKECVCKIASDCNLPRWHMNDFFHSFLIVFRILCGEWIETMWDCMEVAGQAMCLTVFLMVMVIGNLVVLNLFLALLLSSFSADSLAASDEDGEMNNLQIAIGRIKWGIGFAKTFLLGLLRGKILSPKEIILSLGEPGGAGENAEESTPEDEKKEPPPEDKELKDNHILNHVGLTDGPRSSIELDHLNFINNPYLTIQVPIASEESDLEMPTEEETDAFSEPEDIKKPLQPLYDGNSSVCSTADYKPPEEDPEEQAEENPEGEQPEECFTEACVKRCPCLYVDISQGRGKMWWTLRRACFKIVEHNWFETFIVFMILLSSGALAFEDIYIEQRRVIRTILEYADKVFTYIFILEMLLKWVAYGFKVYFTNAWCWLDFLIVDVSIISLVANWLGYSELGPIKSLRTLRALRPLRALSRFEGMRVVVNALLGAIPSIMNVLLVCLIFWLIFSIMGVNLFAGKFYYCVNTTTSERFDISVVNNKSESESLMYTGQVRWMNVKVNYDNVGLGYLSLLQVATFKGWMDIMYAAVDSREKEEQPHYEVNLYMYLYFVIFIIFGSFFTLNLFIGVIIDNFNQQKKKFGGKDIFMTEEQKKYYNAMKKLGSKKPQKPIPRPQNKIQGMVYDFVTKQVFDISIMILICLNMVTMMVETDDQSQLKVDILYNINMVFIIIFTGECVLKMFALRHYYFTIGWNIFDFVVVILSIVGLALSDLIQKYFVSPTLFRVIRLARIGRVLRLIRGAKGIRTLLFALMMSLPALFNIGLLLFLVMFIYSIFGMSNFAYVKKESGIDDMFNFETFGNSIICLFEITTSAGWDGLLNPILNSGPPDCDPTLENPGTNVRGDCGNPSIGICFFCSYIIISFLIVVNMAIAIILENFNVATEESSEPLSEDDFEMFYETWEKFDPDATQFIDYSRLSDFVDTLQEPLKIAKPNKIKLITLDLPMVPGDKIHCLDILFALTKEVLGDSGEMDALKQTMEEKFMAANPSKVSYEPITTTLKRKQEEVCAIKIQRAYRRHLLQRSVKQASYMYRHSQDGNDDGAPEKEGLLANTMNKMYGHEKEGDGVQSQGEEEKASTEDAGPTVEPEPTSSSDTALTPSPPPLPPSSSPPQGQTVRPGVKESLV", "assay": "whole-cell patch clamp in transfected HEK293T cells, […]", "conditions": "HEK-293T"}, "NaV1.4 [4]": {"target": "T3, NaV1.4 (Rattus norvegicus, UniProt P15390)", "T3 construct": "gene Scn4a; rat NaV1.4 (NM013178) in pEGFP-N1", "assay": "whole-cell patch clamp in transfected HEK293T and COS-7 cells, […]"}, "NaV1.2 [5]": {"target": "T4, NaV1.2 (Rattus norvegicus, UniProt P04775, F1764A)", "T4 construct": "gene Scn2a; rat brain type IIA Na+ channel clone", "T4 sequence (P04775 whole entry F1764A)": "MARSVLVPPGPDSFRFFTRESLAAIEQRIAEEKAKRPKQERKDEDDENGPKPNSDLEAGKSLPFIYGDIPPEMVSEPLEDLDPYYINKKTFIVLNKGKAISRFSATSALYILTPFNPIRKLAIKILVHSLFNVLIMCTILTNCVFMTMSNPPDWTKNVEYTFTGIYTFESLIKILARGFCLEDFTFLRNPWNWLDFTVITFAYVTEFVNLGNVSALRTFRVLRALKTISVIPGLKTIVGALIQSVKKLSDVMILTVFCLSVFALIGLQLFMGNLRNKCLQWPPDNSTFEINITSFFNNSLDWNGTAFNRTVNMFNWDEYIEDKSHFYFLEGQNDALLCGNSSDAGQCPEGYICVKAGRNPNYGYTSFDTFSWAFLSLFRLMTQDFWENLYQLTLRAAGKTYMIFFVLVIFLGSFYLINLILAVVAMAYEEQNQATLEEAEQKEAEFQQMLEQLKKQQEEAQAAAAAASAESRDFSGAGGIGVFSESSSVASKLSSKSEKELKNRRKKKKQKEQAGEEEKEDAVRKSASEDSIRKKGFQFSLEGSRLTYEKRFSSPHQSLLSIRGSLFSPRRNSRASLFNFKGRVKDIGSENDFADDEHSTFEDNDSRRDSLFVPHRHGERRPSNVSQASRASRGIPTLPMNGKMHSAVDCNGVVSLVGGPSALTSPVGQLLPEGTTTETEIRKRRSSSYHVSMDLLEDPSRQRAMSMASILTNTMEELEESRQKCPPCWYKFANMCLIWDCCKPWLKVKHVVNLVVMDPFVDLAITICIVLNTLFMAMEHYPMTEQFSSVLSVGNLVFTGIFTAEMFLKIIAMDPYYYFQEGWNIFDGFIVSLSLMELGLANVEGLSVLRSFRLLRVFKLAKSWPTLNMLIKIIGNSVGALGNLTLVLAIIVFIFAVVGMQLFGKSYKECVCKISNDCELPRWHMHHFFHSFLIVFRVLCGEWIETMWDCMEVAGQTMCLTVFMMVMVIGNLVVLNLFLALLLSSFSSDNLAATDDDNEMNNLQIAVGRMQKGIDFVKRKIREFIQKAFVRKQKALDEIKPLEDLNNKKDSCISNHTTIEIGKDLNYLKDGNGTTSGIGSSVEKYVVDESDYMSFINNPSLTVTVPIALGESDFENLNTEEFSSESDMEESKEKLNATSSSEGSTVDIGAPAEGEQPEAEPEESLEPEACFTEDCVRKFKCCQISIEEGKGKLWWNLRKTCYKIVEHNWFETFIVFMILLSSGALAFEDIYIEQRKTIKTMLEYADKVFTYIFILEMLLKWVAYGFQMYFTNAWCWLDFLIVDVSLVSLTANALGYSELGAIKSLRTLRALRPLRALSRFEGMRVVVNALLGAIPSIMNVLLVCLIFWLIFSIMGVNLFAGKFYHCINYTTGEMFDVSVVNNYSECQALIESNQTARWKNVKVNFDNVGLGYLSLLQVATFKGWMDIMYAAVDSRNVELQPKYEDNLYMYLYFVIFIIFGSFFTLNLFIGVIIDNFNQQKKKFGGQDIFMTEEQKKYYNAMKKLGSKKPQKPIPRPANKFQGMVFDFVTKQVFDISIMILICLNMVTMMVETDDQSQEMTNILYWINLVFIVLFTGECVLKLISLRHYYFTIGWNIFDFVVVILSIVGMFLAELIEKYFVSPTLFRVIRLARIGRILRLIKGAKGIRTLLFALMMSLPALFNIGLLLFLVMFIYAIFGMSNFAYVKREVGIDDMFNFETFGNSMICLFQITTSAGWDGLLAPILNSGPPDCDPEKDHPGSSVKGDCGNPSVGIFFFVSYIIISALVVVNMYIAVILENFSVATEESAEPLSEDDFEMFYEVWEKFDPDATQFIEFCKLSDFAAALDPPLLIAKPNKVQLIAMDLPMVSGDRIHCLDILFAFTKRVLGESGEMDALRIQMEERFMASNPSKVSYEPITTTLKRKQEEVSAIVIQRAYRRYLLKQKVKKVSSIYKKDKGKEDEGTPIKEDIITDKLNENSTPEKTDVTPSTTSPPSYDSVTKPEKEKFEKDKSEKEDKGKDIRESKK", "assay": "whole-cell patch clamp in transfected HEK293T cells, […]", "conditions": "HEK-293T"}, "NaV1.2 [6]": {"target": "T5, NaV1.2 (Rattus norvegicus, UniProt P04775, Y1771A)", "T5 construct": "gene Scn2a; rat brain type IIA Na+ channel clone", "T5 sequence (P04775 whole entry Y1771A)": "as the sequence (P04775 whole entry F1764A) above, with A1764F, Y1771A counted along it", "assay": "whole-cell patch clamp in transfected HEK293T cells, […]", "conditions": "HEK-293T"}, "NaV1.2 [7]": {"target": "T1, NaV1.2", "assay": "whole-cell patch clamp in transfected HEK293T cells"}, "NaV1.4 [8]": {"target": "T6, NaV1.4 (Rattus norvegicus, UniProt P15390, F1579A)", "T6 construct": "gene Scn4a; rat NaV1.4 (NM013178)", "T6 sequence (P15390 whole entry F1579A)": "as the sequence (P15390 whole entry Y1586A) above, with F1579A, A1586Y counted along it", "assay": "whole-cell patch clamp in transfected HEK293T cells, […]", "conditions": "HEK-293T"}},
  "data": [
    {"smiles": "COc1ccc2c(c1)[C@]13CCCC[C@@H]1[C@H](C2)N(C)CC3", "note": "[Dextromethorphan]", "values": [
      {"measurement": "inhibition at 100 µM", "setting": "NaV1.2 [1]", "value": "65.8 ± 2", "unit": "%"}
    ]},
    {"smiles": "Cc1ccccc1NC(=N)Nc1ccccc1C", "note": "[1,3-di-o-tolyl-guanidine]", "values": [
      {"measurement": "inhibition at 100 µM", "setting": "NaV1.2 [2]", "value": "69 ± 2.5", "unit": "%"}
    ]},
    {"smiles": "C=CCN1CC[C@]2(C)c3cc(O)ccc3C[C@H]1[C@H]2C", "note": "[(+)-SKF 10047]", "values": [
      {"measurement": "inhibition at 100 µM", "setting": "NaV1.4 [3]", "value": "49.3 ± 0.5", "unit": "%"},
      {"measurement": "inhibition at 100 µM", "setting": "NaV1.4 [4]", "value": "51.5 ± 2.5", "unit": "%"},
      {"measurement": "inhibition at 100 µM", "setting": "NaV1.2 [5]", "value": "25.9 ± 1.6", "unit": "%"},
      {"measurement": "inhibition at 100 µM", "setting": "NaV1.2 [6]", "value": "45.2 ± 1.3", "unit": "%"},
      {"measurement": "IC50", "setting": "NaV1.2 [7]", "value": 140, "unit": "µM"},
      {"measurement": "inhibition at 100 µM", "setting": "NaV1.4 [8]", "value": "23 ± 1.7", "unit": "%"}
    ]}
  ]
}
